The values below are quoted from earlier work in patent US20080213381A1, “Oral Drug Delivery System” (PHARMACEUTICAL INDUSTRIES LIMITED, priority 2005, published 2008).

Molecules are shown by their SMILES.

Setting [1] is: oral, conventional immediate release dosage form of venlafaxine hydrochloride.

On to `COc1ccc(C(CN(C)C)C2(O)CCCCC2)cc1` (stereo not drawn) [venlafaxine], for which, for the setting “conventional immediate release dosage form”, the “time after oral administration at which plasma venlafaxine level is sub-therapeutic” value is recorded as “around 12 hours”. In addition, under setting [1], the “time at which peak plasma concentration of the active metabolite is achieved” value was 4 h and the “time at which peak plasma concentration of venlafaxine is achieved” value was 2 h.
